Assay results published in article PMC4512239 (Clinical cancer research : an official journal of the …, 2015).

Assay: phase I safety and tolerability
Assay type: in vivo, human

## CNC(=O)c1cccc(-c2ccc3c(N4CCOC[C@@H]4C)nc(N4CCOC[C@@H]4C)nc3n2)c1 [AZD2014]
50 mg BD cohort
  grade 3 or above hypercholesterolemia or triglyceridemia: no grade 3 or above hypercholesterolemia or triglyceridemia was seen
50 mg BD starting dose, 6 patients
  dose limiting toxicities: no DLTs
50 mg BD, Part A and Part B
  nausea, mucositis, diarrhea and vomiting: share of grade 3 or 4: less than 5%
  rash: share of grade 3 or higher: less than 5%
70 mg BD
  evaluable patients with dose limiting toxicities: 2/4
100 mg BD
  patients with dose limiting toxicities: 4/4
All 50mg BD solution (N=41)
  Anemia, Any grade: 7 (17.1) Number (%) of patients
  Anemia, CTCAE grade 1-2: 7 (17.1) Number (%) of patients
  Anemia, CTCAE grade >=3: 0 Number (%) of patients
  Back pain, Any grade: 7 (17.1) Number (%) of patients
  Back pain, CTCAE grade 1-2: 6 (14.6) Number (%) of patients
  Back pain, CTCAE grade >=3: 1 (2.4) Number (%) of patients
  Constipation, Any grade: 13 (31.7) Number (%) of patients
  Constipation, CTCAE grade 1-2: 13 (31.7) Number (%) of patients
  Constipation, CTCAE grade >=3: 0 Number (%) of patients
  Cough, Any grade: 8 (19.5) Number (%) of patients
  Cough, CTCAE grade 1-2: 8 (19.5) Number (%) of patients
  Cough, CTCAE grade >=3: 0 Number (%) of patients
  Decreased appetite, Any grade: 17 (41.5) Number (%) of patients
  Decreased appetite, CTCAE grade 1-2: 17 (41.5) Number (%) of patients
  Decreased appetite, CTCAE grade >=3: 0 Number (%) of patients
  Diarrhea, Any grade: 17 (41.5) Number (%) of patients
  Diarrhea, CTCAE grade 1-2: 17 (41.5) Number (%) of patients
  Diarrhea, CTCAE grade >=3: 0 Number (%) of patients
  Dry mouth, Any grade: 8 (19.5) Number (%) of patients
  Dry mouth, CTCAE grade 1-2: 8 (19.5) Number (%) of patients
  Dry mouth, CTCAE grade >=3: 0 Number (%) of patients
  Dyspnea, Any grade: 7 (17.1) Number (%) of patients
  Dyspnea, CTCAE grade 1-2: 5 (12.2) Number (%) of patients
  Dyspnea, CTCAE grade >=3: 2 (4.9) Number (%) of patients
  Fatigue, Any grade: 32 (78.0) Number (%) of patients
  Fatigue, CTCAE grade 1-2: 30 (73.2) Number (%) of patients
  Fatigue, CTCAE grade >=3: 2 (4.9) Number (%) of patients
  Hypokalemia, Any grade: 6 (14.6) Number (%) of patients
  Hypokalemia, CTCAE grade 1-2: 5 (12.2) Number (%) of patients
  Hypokalemia, CTCAE grade >=3: 1 (2.4) Number (%) of patients
  Lower respiratory tract infection, Any grade: 7 (17.1) Number (%) of patients
  Lower respiratory tract infection, CTCAE grade 1-2: 6 (14.6) Number (%) of patients
  Lower respiratory tract infection, CTCAE grade >=3: 1 (2.4) Number (%) of patients
  Mucositis, Any grade: 20 (48.8) Number (%) of patients
  Mucositis, CTCAE grade 1-2: 19 (46.3) Number (%) of patients
  Mucositis, CTCAE grade >=3: 1 (2.4) Number (%) of patients
  Nausea, Any grade: 21 (51.2) Number (%) of patients
  Nausea, CTCAE grade 1-2: 19 (46.3) Number (%) of patients
  Nausea, CTCAE grade >=3: 2 (4.9) Number (%) of patients
  Pruritus, Any grade: 13 (31.7) Number (%) of patients
  Pruritus, CTCAE grade 1-2: 13 (31.7) Number (%) of patients
  Pruritus, CTCAE grade >=3: 0 Number (%) of patients
  Rash, Any grade: 17 (41.5) Number (%) of patients
  Rash, CTCAE grade 1-2: 15 (36.6) Number (%) of patients
  Rash, CTCAE grade >=3: 2 (4.9) Number (%) of patients
  Vomiting, Any grade: 12 (29.3) Number (%) of patients
  Vomiting, CTCAE grade 1-2: 11 (26.8) Number (%) of patients
  Vomiting, CTCAE grade >=3: 1 (2.4) Number (%) of patients
Part A 25mg BD solution (N=6)
  Anemia, Any grade: 0 Number (%) of patients
  Anemia, CTCAE grade 1-2: 0 Number (%) of patients
  Anemia, CTCAE grade >=3: 0 Number (%) of patients
  Back pain, Any grade: 0 Number (%) of patients
  Back pain, CTCAE grade 1-2: 0 Number (%) of patients
  Back pain, CTCAE grade >=3: 0 Number (%) of patients
  Constipation, Any grade: 2 (33.3) Number (%) of patients
  Constipation, CTCAE grade 1-2: 2 (33.3) Number (%) of patients
  Constipation, CTCAE grade >=3: 0 Number (%) of patients
  Cough, Any grade: 3 (50.0) Number (%) of patients
  Cough, CTCAE grade 1-2: 3 (50.0) Number (%) of patients
  Cough, CTCAE grade >=3: 0 Number (%) of patients
  Decreased appetite, Any grade: 3 (50.0) Number (%) of patients
  Decreased appetite, CTCAE grade 1-2: 3 (50.0) Number (%) of patients
  Decreased appetite, CTCAE grade >=3: 0 Number (%) of patients
  Diarrhea, Any grade: 2 (33.3) Number (%) of patients
  Diarrhea, CTCAE grade 1-2: 2 (33.3) Number (%) of patients
  Diarrhea, CTCAE grade >=3: 0 Number (%) of patients
  Dry mouth, CTCAE grade >=3: 0 Number (%) of patients
  Dyspnea, Any grade: 1 (16.7) Number (%) of patients
  Dyspnea, CTCAE grade 1-2: 1 (16.7) Number (%) of patients
  Dyspnea, CTCAE grade >=3: 0 Number (%) of patients
  Fatigue, Any grade: 3 (50.0) Number (%) of patients
  Fatigue, CTCAE grade 1-2: 2 (33.3) Number (%) of patients
  Fatigue, CTCAE grade >=3: 1 (16.7) Number (%) of patients
  Hypokalemia, Any grade: 2 (33.3) Number (%) of patients
  Hypokalemia, CTCAE grade 1-2: 2 (33.3) Number (%) of patients
  Hypokalemia, CTCAE grade >=3: 0 Number (%) of patients
  Lower respiratory tract infection, Any grade: 1 (16.7) Number (%) of patients
  Lower respiratory tract infection, CTCAE grade 1-2: 0 Number (%) of patients
  Lower respiratory tract infection, CTCAE grade >=3: 1 (16.7) Number (%) of patients
  Mucositis, Any grade: 2 (33.3) Number (%) of patients
  Mucositis, CTCAE grade 1-2: 2 (33.3) Number (%) of patients
  Mucositis, CTCAE grade >=3: 0 Number (%) of patients
  Nausea, Any grade: 2 (33.3) Number (%) of patients
  Nausea, CTCAE grade 1-2: 2 (33.3) Number (%) of patients
  Nausea, CTCAE grade >=3: 0 Number (%) of patients
  Pruritus, Any grade: 0 Number (%) of patients
  Pruritus, CTCAE grade 1-2: 0 Number (%) of patients
  Pruritus, CTCAE grade >=3: 0 Number (%) of patients
  Rash, Any grade: 1(16.7) Number (%) of patients
  Rash, CTCAE grade 1-2: 1(16.7) Number (%) of patients
  Rash, CTCAE grade >=3: 0 Number (%) of patients
  Vomiting, Any grade: 0 Number (%) of patients
  Vomiting, CTCAE grade 1-2: 0 Number (%) of patients
  Vomiting, CTCAE grade >=3: 0 Number (%) of patients
Part A 70mg BD solution (N=5)
  Anemia, Any grade: 1 (20.0) Number (%) of patients
  Anemia, CTCAE grade 1-2: 0 Number (%) of patients
  Anemia, CTCAE grade >=3: 1 (20.0) Number (%) of patients
  Back pain, Any grade: 0 Number (%) of patients
  Back pain, CTCAE grade 1-2: 0 Number (%) of patients
  Back pain, CTCAE grade >=3: 0 Number (%) of patients
  Constipation, Any grade: 0 Number (%) of patients
  Constipation, CTCAE grade 1-2: 0 Number (%) of patients
  Constipation, CTCAE grade >=3: 0 Number (%) of patients
  Cough, Any grade: 1 (20.0) Number (%) of patients
  Cough, CTCAE grade 1-2: 1 (20.0) Number (%) of patients
  Cough, CTCAE grade >=3: 0 Number (%) of patients
  Decreased appetite, Any grade: 2 (40.0) Number (%) of patients
  Decreased appetite, CTCAE grade 1-2: 2 (40.0) Number (%) of patients
  Decreased appetite, CTCAE grade >=3: 0 Number (%) of patients
  Diarrhea, Any grade: 3 (60.0) Number (%) of patients
  Diarrhea, CTCAE grade 1-2: 3 (60.0) Number (%) of patients
  Diarrhea, CTCAE grade >=3: 0 Number (%) of patients
  Dry mouth, Any grade: 0 Number (%) of patients
  Dry mouth, CTCAE grade 1-2: 0 Number (%) of patients
  Dry mouth, CTCAE grade >=3: 0 Number (%) of patients
  Dyspnea, Any grade: 1 (20.0) Number (%) of patients
  Dyspnea, CTCAE grade 1-2: 1 (20.0) Number (%) of patients
  Dyspnea, CTCAE grade >=3: 0 Number (%) of patients
